{"source": "patent US20220177968A1", "about": "“METHODS FOR DETECTING OR REDUCING THE INCIDENCE OF ADVERSE DRUG REACTIONS” (CHANG GUNG MEMORIAL HOSPITAL, LINKOU, priority 2019, published 2022)", "key": {"[1]": {"tested_on": "European descent patients with CBZ-induced SJS/TEN", "experiment": "HLA-A/B allele association with CBZ-induced SJS/TEN (case-control, sequence-based HLA typing)", "type": "in vivo, human", "details": "for OR (95% CI) / Odds ratio (95% CI): CBZ-SJS/TEN cases vs European general population; for SJS/TEN N (%), allele carriers among cases / SCAR case N (%), allele carriers among cases: CBZ-SJS/TEN patients of European descent", "text": "(§1) A total of 28 patients of European descent with CBZ-SJS/TEN were enrolled in this study. SJS/TEN is characterized by a rapidly developing exanthema of purpuric macules and target-like lesions with skin detachment accompanied by hemorrhagic-erosive mucosal involvement. Skin detachment in SJS patients affects less than 10% of body surface area (BSA), while TEN patients have skin detachment greater than 30% of BSA. Detachment of 10-30% is defined as SJS/TEN-overlap, reflecting a continuum of severity variants of one disease entity. Patients with CBZ-DRESS were also enrolled for comparison. HLA-A and HLA-B genotypes of patients with CBZ-SJS/TEN were determined by SeCore HLA sequence-based typing (Invitrogen, Life Technologies, USA). Furthermore, the HLA genotypes for patients with CBZ-DRESS and general population (the control group) were also determined. Statistical analyses were performed using SPSS 21.0 (IBM, Armonk, N.Y.). Comparisons of genotype frequencies between groups were performed using Fisher exact tests. Differences were considered statistically significant at p-values of less than 0.05."}, "[2]": {"tested_on": "patients with CBZ-DRESS, European descent", "experiment": "HLA allele association with CBZ-induced DRESS (case-control, HLA typing)", "type": "in vivo, human", "details": "for Odds ratio (95% CI): CBZ-DRESS cases vs European general population; for SCAR case N (%), allele carriers among cases: CBZ-DRESS patients", "text": "as §1"}}, "note": "Where “and” joins values, the source holds several entries; their conditions need not be identical. Equal values may be shown once.", "data": [{"smiles": "NC(=O)N1c2ccccc2C=Cc2ccccc21", "note": "[CBZ, Carbamazepine]", "values": [{"measurement": "OR (95% CI)", "setting": "[1]; HLA-A*01:01", "result": "2.2 (1.1-4.7)"}, {"measurement": "SJS/TEN N (%), allele carriers among cases", "setting": "[1]; HLA-A*01:01", "result": "14/28 (50.0%)"}, {"measurement": "OR (95% CI)", "setting": "[1]; HLA-A*02:01", "result": "0.5 (0.2-1.0)"}, {"measurement": "SJS/TEN N (%), allele carriers among cases", "setting": "[1]; HLA-A*02:01", "result": "11/28 (39.29%)"}, {"measurement": "OR (95% CI)", "setting": "[1]; HLA-A*24:02", "result": "0.6 (0.2-1.8)"}, {"measurement": "SJS/TEN N (%), allele carriers among cases", "setting": "[1]; HLA-A*24:02", "result": "3/28 (10.71%)"}, {"measurement": "OR (95% CI)", "setting": "[1]; HLA-A*26:01", "result": "3.5 (1.3-9.0)"}, {"measurement": "SJS/TEN N (%), allele carriers among cases", "setting": "[1]; HLA-A*26:01", "result": "5/28 (17.86%)"}, {"measurement": "OR (95% CI)", "setting": "[1]; HLA-A*31:01", "result": "3.5 (1.2-10.2) and 3.6 (1.2-10.3)"}, {"measurement": "Sensitivity (%)", "setting": "[1]; HLA-A*31:01 as marker of CBZ-SJS/TEN", "result": 14.29, "unit": "%"}, {"measurement": "OR (95% CI)", "setting": "[1]; HLA-B*08:01", "result": "1.5 (0.7-3.5)"}, {"measurement": "SJS/TEN N (%), allele carriers among cases", "setting": "[1]; HLA-B*08:01", "result": "8/28 (28.57%)"}, {"measurement": "OR (95% CI)", "setting": "[1]; HLA-B*13:02", "result": "1.8 (0.5-6.0)"}, {"measurement": "SJS/TEN N (%), allele carriers among cases", "setting": "[1]; HLA-B*13:02", "result": "3/28 (10.71%)"}, {"measurement": "OR (95% CI)", "setting": "[1]; HLA-B*15:02", "result": "44.4 (2.2-879.5)"}, {"measurement": "SJS/TEN N (%), allele carriers among cases", "setting": "[1]; HLA-B*15:02", "result": "0/28 (0%)"}, {"measurement": "OR (95% CI)", "setting": "[1]; HLA-B*18:01", "result": "1.1 (0.3-3.8)"}, {"measurement": "SJS/TEN N (%), allele carriers among cases", "setting": "[1]; HLA-B*18:01", "result": "3/28 (10.71%)"}, {"measurement": "Sensitivity (%)", "setting": "[1]; HLA-B*38:01 as marker of CBZ-SJS/TEN", "result": 14.29, "unit": "%"}, {"measurement": "OR (95% CI)", "setting": "[1]; HLA-B*44:02", "result": "0.2 (0.0-1.4)"}, {"measurement": "SJS/TEN N (%), allele carriers among cases", "setting": "[1]; HLA-B*44:02", "result": "1/28 (3.57%)"}, {"measurement": "OR (95% CI)", "setting": "[1]; HLA-B*44:03", "result": "1.9 (0.6-5.4)"}, {"measurement": "SJS/TEN N (%), allele carriers among cases", "setting": "[1]; HLA-B*44:03", "result": "4/28 (14.29%)"}, {"measurement": "Odds ratio (95% CI)", "setting": "[1]; HLA-B*57:01/A*31:01/B*38:01", "result": "9.3 (4.4-19.9)"}, {"measurement": "SCAR case N (%), allele carriers among cases", "setting": "[1]; HLA-B*57:01/A*31:01/B*38:01", "result": "(60.71%)"}, {"measurement": "Sensitivity (%)", "setting": "[1]; HLA-B*57:01/A*31:01/B*38:01 as marker of CBZ-SJS/TEN", "result": 60.71, "unit": "%"}, {"measurement": "Odds ratio (95% CI)", "setting": "[1]; HLA-B*57:01/A*31:01", "result": "8.0 (3.8-16.7)"}, {"measurement": "SCAR case N (%), allele carriers among cases", "setting": "[1]; HLA-B*57:01/A*31:01", "result": "(50.00%)"}, {"measurement": "Sensitivity (%)", "setting": "[1]; HLA-B*57:01/A*31:01 as marker of CBZ-SJS/TEN", "result": 50.00, "unit": "%"}, {"measurement": "Odds ratio (95% CI)", "setting": "[1]; HLA-B*57:01/B*38:01", "result": "8.6 (4.1-18.1)"}, {"measurement": "SCAR case N (%), allele carriers among cases", "setting": "[1]; HLA-B*57:01/B*38:01", "result": "(50.00%)"}, {"measurement": "Sensitivity (%)", "setting": "[1]; HLA-B*57:01/B*38:01 as marker of CBZ-SJS/TEN", "result": 50.00, "unit": "%"}, {"measurement": "Sensitivity (%)", "setting": "[1]; HLA-B*57:01 as marker of CBZ-SJS/TEN", "result": 39.29, "unit": "%"}, {"measurement": "Odds ratio (95% CI)", "setting": "[2]; HLA-A*31:01", "result": "49.9 (12.9-193.6)"}, {"measurement": "Sensitivity (%)", "setting": "[2]; HLA-A*31:01 as marker of CBZ-DRESS", "result": 70.00, "unit": "%"}, {"measurement": "Odds ratio (95% CI)", "setting": "[2]; HLA-B*38:01", "result": "1.2 (0.1-21.0)"}, {"measurement": "SCAR case N (%), allele carriers among cases", "setting": "[2]; HLA-B*38:01", "result": "(0%)"}, {"measurement": "Sensitivity (%)", "setting": "[2]; HLA-B*38:01 as marker of CBZ-DRESS", "result": 0, "unit": "%"}, {"measurement": "Odds ratio (95% CI)", "setting": "[2]; HLA-B*57:01/A*31:01/B*38:01", "result": "14.1 (3.6-54.5)"}, {"measurement": "SCAR case N (%), allele carriers among cases", "setting": "[2]; HLA-B*57:01/A*31:01/B*38:01", "result": "(70.00%)"}, {"measurement": "Sensitivity (%)", "setting": "[2]; HLA-B*57:01/A*31:01/B*38:01 as marker of CBZ-DRESS", "result": 70.00, "unit": "%"}, {"measurement": "Odds ratio (95% CI)", "setting": "[2]; HLA-B*57:01/A*31:01", "result": "18.6 (4.8-71.9)"}, {"measurement": "SCAR case N (%), allele carriers among cases", "setting": "[2]; HLA-B*57:01/A*31:01", "result": "(70.00%)"}, {"measurement": "Sensitivity (%)", "setting": "[2]; HLA-B*57:01/A*31:01 as marker of CBZ-DRESS", "result": 70.00, "unit": "%"}, {"measurement": "Odds ratio (95% CI)", "setting": "[2]; HLA-B*57:01/B*38:01", "result": "0.4 (0-7.0)"}, {"measurement": "SCAR case N (%), allele carriers among cases", "setting": "[2]; HLA-B*57:01/B*38:01", "result": "(0%)"}, {"measurement": "Sensitivity (%)", "setting": "[2]; HLA-B*57:01/B*38:01 as marker of CBZ-DRESS", "result": 0, "unit": "%"}, {"measurement": "Odds ratio (95% CI)", "setting": "[2]; HLA-B*57:01", "result": "0.7 (0.0-11.3)"}, {"measurement": "SCAR case N (%), allele carriers among cases", "setting": "[2]; HLA-B*57:01", "result": "(0%)"}, {"measurement": "Sensitivity (%)", "setting": "[2]; HLA-B*57:01 as marker of CBZ-DRESS", "result": 0, "unit": "%"}]}]}
